Experimental data published in BindingDB's records for doi:10.1111/j.1747-0285.2011.01199.x (Sanford-Burnham Medical Research Institute, 2011).

Biological target: T1, Ephrin type-A receptor 4 [1-949,A922V] (Homo sapiens, UniProt P54764, A922V)
T1 construct: 1-949
Assay: Enzyme-linked Immunosorbent Assay
Settings: pH 7.5
Procedure: Protein A-coasted wells (from Pierce Biotechnology) were used to immobilize Eph receptor Fc fusion proteins (from R&D systems)incubated at 1 ug/ml in TBST.

Compound	IC50 [µM]
Cc1ccc(C)n1-c1ccc(O)c(C(=O)O)c1 [Salicylic acid derivative, compound 2]	10
O=C(O)c1ccc(-c2ccc(O)c(C(=O)O)c2)o1 [Salicylic acid derivative, 76B8]	> 500
O=C(/C=C/c1ccc(-c2ccc(O)c(C(=O)O)c2)o1)/C=C/c1ccc(-c2ccc(O)c(C(=O)O)c2)o1 [Salicylic acid derivative, 76D10]	2.6
Cc1ccc(C)n1-c1ccc(C(=O)O)c(O)c1 [4-(2,5-dimethyl-1H-pyrrol-1-yl)-2-hydroxybenzoic acid]	1.3
O=C(O)/C=C/c1ccc(-c2ccc(O)c(C(=O)O)c2)o1 [Salicylic acid derivative, 76A5]	> 500
